Reference: ChEMBL document CHEMBL4507287, “Data for DCP probe MRL-650” (2021)

Assays:
[1] = target: RAC-beta serine/threonine-protein kinase (Homo sapiens) (UniProt P31751); conditions: Compound concentration 1000.0 nM
[2] = target: Serine/threonine-protein kinase MAK (Homo sapiens) (UniProt P20794); conditions: Compound concentration 1000.0 nM
[3] = target: Calcium/calmodulin-dependent protein kinase type 1D (Homo sapiens) (UniProt Q8IU85); conditions: Compound concentration 1000.0 nM
[4] = tested on: Tyrosine-protein kinase ABL1 (Homo sapiens), P00519 [F317I]; conditions: Compound concentration 1000.0 nM
[5] = target: Ephrin type-B receptor 6 (Homo sapiens) (UniProt O15197); conditions: Compound concentration 1000.0 nM
[6] = target: Mitogen-activated protein kinase kinase kinase kinase 4 (Homo sapiens) (UniProt O95819); conditions: Compound concentration 1000.0 nM
Mitogen-activated protein kinase kinase kinase kinase 4 (Homo sapiens), sequence (O95819 2-1239 limits assumed): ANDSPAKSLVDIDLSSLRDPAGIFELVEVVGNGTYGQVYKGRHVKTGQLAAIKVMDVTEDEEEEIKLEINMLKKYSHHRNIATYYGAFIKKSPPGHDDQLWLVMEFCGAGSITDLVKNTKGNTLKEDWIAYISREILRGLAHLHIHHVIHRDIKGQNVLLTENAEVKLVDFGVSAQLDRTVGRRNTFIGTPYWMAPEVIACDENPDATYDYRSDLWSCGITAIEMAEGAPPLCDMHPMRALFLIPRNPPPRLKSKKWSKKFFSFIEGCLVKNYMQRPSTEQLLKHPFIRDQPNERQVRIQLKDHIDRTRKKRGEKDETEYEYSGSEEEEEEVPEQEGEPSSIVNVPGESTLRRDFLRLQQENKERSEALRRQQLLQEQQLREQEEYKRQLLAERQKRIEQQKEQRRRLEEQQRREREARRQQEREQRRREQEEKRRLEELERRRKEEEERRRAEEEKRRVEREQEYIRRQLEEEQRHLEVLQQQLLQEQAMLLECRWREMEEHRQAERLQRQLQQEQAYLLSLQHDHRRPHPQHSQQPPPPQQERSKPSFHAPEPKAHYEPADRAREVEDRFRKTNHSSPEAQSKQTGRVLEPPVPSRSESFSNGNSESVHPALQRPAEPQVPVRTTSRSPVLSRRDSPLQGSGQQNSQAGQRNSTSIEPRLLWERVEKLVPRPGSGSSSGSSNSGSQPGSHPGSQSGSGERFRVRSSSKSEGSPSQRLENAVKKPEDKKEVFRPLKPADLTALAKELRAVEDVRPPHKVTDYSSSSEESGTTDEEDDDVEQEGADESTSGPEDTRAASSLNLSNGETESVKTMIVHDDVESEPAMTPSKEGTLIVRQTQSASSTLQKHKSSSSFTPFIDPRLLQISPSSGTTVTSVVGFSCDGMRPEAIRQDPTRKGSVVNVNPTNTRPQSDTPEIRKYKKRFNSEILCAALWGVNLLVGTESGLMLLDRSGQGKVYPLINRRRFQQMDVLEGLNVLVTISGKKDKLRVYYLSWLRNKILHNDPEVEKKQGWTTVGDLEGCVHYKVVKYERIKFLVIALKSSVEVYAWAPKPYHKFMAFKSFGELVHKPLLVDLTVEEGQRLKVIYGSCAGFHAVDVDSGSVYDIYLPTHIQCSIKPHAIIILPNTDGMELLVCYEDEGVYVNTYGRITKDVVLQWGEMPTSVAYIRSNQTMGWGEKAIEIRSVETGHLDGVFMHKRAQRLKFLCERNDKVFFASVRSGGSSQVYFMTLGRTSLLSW

[7] = target: Mitogen-activated protein kinase kinase kinase kinase 3 (Homo sapiens) (UniProt Q8IVH8); conditions: Compound concentration 1000.0 nM
[8] = target: Vascular endothelial growth factor receptor 3 (Homo sapiens) (UniProt P35916); conditions: Compound concentration 1000.0 nM
[9] = target: Interleukin-1 receptor-associated kinase 1 (Homo sapiens) (UniProt P51617); conditions: Compound concentration 1000.0 nM
[10] = target: Beta-adrenergic receptor kinase 1 (Homo sapiens) (UniProt P25098); conditions: Compound concentration 1000.0 nM
[11] = target: 5-hydroxytryptamine receptor 2A (Homo sapiens, UniProt P28223); conditions: Compound concentration 10.0 uM
[12] = target: Serine/threonine-protein kinase Nek3 (Homo sapiens) (UniProt P51956); conditions: Compound concentration 1000.0 nM
[13] = target: Ephrin type-B receptor 1 (Homo sapiens) (UniProt P54762); conditions: Compound concentration 1000.0 nM
[14] = target: Serine/threonine-protein kinase D1 (Homo sapiens) (UniProt Q15139); conditions: Compound concentration 1000.0 nM
[15] = target: Serine/threonine-protein kinase RIO3 (Homo sapiens) (UniProt O14730); conditions: Compound concentration 1000.0 nM
[16] = target: Cyclin-dependent kinase 16 (Homo sapiens) (UniProt Q00536); conditions: Compound concentration 1000.0 nM
[17] = target: Serine/threonine-protein kinase pim-3 (Homo sapiens) (UniProt Q86V86); conditions: Compound concentration 1000.0 nM
[18] = target: Casein kinase I isoform delta (Homo sapiens) (UniProt P48730); conditions: Compound concentration 1000.0 nM
Casein kinase I isoform delta (Homo sapiens), sequence (P48730 whole entry, looked up, canonical isoform): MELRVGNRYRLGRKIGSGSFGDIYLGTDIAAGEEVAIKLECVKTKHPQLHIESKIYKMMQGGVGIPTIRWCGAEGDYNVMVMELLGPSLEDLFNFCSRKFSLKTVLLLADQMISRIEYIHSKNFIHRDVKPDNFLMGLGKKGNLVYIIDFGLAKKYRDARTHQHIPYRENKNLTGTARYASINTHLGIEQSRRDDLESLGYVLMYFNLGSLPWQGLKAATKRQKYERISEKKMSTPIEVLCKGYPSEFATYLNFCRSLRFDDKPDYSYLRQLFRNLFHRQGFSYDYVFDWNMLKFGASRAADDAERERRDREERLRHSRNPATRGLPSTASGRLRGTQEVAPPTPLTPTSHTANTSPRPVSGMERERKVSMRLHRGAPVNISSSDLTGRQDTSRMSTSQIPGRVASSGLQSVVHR

[19] = target: Serine/threonine-protein kinase WNK3 (Homo sapiens) (UniProt Q9BYP7); conditions: Compound concentration 1000.0 nM
[20] = target: Kappa-type opioid receptor (Homo sapiens) (UniProt P41145); conditions: Compound concentration 10.0 uM
[21] = target: Casein kinase I isoform gamma-2 (Homo sapiens) (UniProt P78368); conditions: Compound concentration 1000.0 nM
[22] = target: Serine/threonine-protein kinase 16 (Homo sapiens) (UniProt O75716); conditions: Compound concentration 1000.0 nM
[23] = target: Wee1-like protein kinase 2 (Homo sapiens) (UniProt P0C1S8); conditions: Compound concentration 1000.0 nM
[24] = target: Tyrosine-protein kinase Lck (Homo sapiens) (UniProt P06239); conditions: Compound concentration 1000.0 nM
[25] = tested on: Epidermal growth factor receptor (Homo sapiens), P00533 [L858R,T790M]; conditions: Compound concentration 1000.0 nM
[26] = target: Phosphatidylinositol 4,5-bisphosphate 3-kinase catalytic subunit beta isoform (Homo sapiens) (UniProt P42338); conditions: Compound concentration 1000.0 nM
[27] = target: Serine/threonine-protein kinase 25 (Homo sapiens) (UniProt O00506); conditions: Compound concentration 1000.0 nM
Serine/threonine-protein kinase 25 (Homo sapiens), sequence (O00506 whole entry, looked up): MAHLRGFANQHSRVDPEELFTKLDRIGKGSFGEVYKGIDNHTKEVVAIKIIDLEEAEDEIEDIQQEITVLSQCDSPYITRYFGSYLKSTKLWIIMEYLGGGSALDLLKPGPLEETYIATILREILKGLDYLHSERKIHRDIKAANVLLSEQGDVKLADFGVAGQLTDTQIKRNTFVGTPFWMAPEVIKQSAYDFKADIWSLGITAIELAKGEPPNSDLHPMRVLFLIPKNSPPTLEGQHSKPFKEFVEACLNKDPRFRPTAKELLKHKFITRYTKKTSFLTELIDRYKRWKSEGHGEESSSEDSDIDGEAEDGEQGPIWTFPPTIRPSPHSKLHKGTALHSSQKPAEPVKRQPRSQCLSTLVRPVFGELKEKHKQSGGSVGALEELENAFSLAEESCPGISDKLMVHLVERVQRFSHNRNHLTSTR

[28] = tested on: Receptor-type tyrosine-protein kinase FLT3 (Homo sapiens), P36888 [UNDEFINED MUTATION]; conditions: Compound concentration 1000.0 nM
Receptor-type tyrosine-protein kinase FLT3 (Homo sapiens), P36888 [UNDEFINED MUTATION], sequence (P36888 whole entry, looked up, change not shown): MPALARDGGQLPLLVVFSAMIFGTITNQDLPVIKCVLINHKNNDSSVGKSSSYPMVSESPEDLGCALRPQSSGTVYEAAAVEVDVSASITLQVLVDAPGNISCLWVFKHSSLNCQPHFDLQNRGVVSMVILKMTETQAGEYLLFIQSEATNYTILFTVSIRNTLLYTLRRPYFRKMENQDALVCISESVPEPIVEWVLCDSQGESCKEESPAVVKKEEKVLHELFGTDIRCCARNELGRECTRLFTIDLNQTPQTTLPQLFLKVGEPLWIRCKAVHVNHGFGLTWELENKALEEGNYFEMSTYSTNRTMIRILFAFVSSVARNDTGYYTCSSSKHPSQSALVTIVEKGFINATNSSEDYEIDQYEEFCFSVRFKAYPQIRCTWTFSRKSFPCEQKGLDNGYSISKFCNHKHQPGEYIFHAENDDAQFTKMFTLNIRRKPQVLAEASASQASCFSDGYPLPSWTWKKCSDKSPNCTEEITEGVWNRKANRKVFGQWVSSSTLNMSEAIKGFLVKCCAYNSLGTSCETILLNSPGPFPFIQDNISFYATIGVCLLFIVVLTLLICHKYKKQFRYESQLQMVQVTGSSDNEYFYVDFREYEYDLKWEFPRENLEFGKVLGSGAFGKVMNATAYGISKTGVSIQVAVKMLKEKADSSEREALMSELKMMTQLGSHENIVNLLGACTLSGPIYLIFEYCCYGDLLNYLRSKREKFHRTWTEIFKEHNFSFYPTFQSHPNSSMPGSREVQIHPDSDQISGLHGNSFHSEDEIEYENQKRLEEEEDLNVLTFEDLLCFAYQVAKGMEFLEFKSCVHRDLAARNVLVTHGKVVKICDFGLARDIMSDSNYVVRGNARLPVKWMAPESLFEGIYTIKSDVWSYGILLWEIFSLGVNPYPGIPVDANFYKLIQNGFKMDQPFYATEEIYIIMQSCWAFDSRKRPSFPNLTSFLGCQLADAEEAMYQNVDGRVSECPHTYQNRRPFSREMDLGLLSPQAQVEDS

[29] = target: Ribosomal protein S6 kinase beta-1 (Homo sapiens) (UniProt P23443); conditions: Compound concentration 1000.0 nM
Ribosomal protein S6 kinase beta-1 (Homo sapiens), sequence (P23443 whole entry, looked up): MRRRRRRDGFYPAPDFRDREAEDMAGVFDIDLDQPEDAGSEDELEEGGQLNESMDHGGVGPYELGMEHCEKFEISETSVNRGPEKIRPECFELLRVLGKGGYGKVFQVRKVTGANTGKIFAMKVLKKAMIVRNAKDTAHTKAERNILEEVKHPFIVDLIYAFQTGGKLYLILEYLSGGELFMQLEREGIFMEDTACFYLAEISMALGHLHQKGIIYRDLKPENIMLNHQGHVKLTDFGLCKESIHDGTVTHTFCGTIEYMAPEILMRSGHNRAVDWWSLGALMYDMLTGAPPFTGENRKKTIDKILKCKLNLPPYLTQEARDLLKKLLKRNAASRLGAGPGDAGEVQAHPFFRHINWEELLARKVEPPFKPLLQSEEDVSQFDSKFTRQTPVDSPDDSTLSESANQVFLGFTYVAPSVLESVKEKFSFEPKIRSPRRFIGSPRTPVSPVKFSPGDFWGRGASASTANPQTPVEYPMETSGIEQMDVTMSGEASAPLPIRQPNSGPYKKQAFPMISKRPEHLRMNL

[30] = tested on: Epidermal growth factor receptor (Homo sapiens), P00533 [L858R]; conditions: Compound concentration 1000.0 nM
[31] = tested on: Mast/stem cell growth factor receptor Kit (Homo sapiens), P10721 [D816H]; conditions: Compound concentration 1000.0 nM
Mast/stem cell growth factor receptor Kit (Homo sapiens), P10721 [D816H], sequence (P10721 whole entry D816H): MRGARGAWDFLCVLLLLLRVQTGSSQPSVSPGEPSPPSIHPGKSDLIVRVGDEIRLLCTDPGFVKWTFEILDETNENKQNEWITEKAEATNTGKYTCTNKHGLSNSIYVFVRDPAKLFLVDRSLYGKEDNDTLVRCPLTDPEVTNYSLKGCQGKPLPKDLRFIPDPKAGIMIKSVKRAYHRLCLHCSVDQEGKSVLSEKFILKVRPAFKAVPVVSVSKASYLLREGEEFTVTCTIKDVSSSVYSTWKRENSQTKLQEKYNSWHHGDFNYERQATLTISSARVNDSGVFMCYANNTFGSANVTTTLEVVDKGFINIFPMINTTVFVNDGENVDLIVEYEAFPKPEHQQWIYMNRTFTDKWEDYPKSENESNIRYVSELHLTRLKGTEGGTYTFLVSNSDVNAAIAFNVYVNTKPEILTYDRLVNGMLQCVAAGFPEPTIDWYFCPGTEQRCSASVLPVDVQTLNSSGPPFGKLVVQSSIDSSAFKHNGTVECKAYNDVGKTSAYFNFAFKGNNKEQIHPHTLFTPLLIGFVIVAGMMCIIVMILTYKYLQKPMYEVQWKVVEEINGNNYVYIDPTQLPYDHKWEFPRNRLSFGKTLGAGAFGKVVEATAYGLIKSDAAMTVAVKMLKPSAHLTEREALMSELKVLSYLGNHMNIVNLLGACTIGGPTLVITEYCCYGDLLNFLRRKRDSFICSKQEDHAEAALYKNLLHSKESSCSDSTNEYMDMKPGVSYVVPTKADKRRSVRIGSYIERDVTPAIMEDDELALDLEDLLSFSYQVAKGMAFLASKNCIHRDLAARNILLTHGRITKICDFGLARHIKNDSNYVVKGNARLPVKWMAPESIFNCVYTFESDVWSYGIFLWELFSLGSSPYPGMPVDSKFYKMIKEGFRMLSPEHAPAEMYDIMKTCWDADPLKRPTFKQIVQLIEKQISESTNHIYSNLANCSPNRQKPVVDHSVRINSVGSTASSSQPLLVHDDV

[32] = target: Misshapen-like kinase 1 (Homo sapiens) (UniProt Q8N4C8); conditions: Compound concentration 1000.0 nM
[33] = target: Serine/threonine-protein kinase 26 (Homo sapiens) (UniProt Q9P289); conditions: Compound concentration 1000.0 nM
[34] = target: Testis-specific serine/threonine-protein kinase 1 (Homo sapiens) (UniProt Q9BXA7); conditions: Compound concentration 1000.0 nM
[35] = target: Tyrosine-protein kinase Tec (Homo sapiens) (UniProt P42680); conditions: Compound concentration 1000.0 nM
[36] = tested on: Epidermal growth factor receptor (Homo sapiens), P00533 [UNDEFINED MUTATION]; conditions: Compound concentration 1000.0 nM
[37] = target: Cyclin-dependent kinase 17 (Homo sapiens) (UniProt Q00537); conditions: Compound concentration 1000.0 nM
[38] = target: Vascular endothelial growth factor receptor 1 (Homo sapiens) (UniProt P17948); conditions: Compound concentration 1000.0 nM
[39] = target: Serine/threonine-protein kinase Chk2 (Homo sapiens) (UniProt O96017); conditions: Compound concentration 1000.0 nM
[40] = target: Glycogen synthase kinase-3 alpha (Homo sapiens) (UniProt P49840); conditions: Compound concentration 1000.0 nM
[41] = target: Myosin light chain kinase, smooth muscle (Homo sapiens) (UniProt Q15746); conditions: Compound concentration 1000.0 nM
[42] = target: Sodium-dependent noradrenaline transporter (Homo sapiens) (UniProt P23975); conditions: Compound concentration 10.0 uM
[43] = target: D(2) dopamine receptor (Homo sapiens) (UniProt P14416); conditions: Compound concentration 10.0 uM
D(2) dopamine receptor (Homo sapiens), sequence (P14416 whole entry): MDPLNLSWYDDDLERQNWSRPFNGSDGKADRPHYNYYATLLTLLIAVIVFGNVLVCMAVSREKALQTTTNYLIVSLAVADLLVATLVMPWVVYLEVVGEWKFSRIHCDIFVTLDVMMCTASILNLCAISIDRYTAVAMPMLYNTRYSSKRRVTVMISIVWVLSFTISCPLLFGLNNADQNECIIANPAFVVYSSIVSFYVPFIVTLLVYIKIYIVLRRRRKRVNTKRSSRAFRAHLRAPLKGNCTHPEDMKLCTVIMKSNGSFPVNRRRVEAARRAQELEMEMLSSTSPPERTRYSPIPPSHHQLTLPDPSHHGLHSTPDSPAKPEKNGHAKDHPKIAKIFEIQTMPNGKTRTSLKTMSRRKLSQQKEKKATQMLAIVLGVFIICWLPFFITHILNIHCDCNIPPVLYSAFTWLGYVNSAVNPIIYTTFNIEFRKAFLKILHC

[44] = target: Myosin-IIIa (Homo sapiens) (UniProt Q8NEV4); conditions: Compound concentration 1000.0 nM
[45] = target: Cyclin-dependent kinase 2 homolog (Plasmodium falciparum (isolate 3D7)) (UniProt P61075); conditions: Compound concentration 1000.0 nM

## CC(=O)c1c(NS(C)(=O)=O)c2cc(-c3ccc(Cl)cc3)c(-c3ccc(Cl)cc3Cl)nc2n(C)c1=O [MRL-CB1-NC]
[1]
  residual activity: 100%
[2]
  residual activity: 93%
[3]
  residual activity: 100%
[4]
  residual activity: 85%
[5]
  residual activity: 100%
[6]
  residual activity: 100%
[7]
  residual activity: 99%
[8]
  residual activity: 100%
[9]
  residual activity: 92%
[10]
  residual activity: 74%
[11]
  inhibition: 78.8%
[12]
  residual activity: 67%
[13]
  residual activity: 100%
[14]
  residual activity: 100%
[15]
  residual activity: 96%
[16]
  residual activity: 76%
[17]
  residual activity: 100%
[18]
  residual activity: 100%
[19]
  residual activity: 80%
[20]
  inhibition: 2.99%
[21]
  residual activity: 100%
[22]
  residual activity: 100%
[23]
  residual activity: 100%
[24]
  residual activity: 100%
[25]
  residual activity: 89%
[26]
  residual activity: 100%
[27]
  residual activity: 100%
[28]
  residual activity: 98%
[29]
  residual activity: 95%
[30]
  residual activity: 98%
[31]
  residual activity: 70%
[32]
  residual activity: 100%
[33]
  residual activity: 84%
[34]
  residual activity: 100%
[35]
  residual activity: 100%
[36]
  residual activity: 91%
[37]
  residual activity: 100%
[38]
  residual activity: 100%
[39]
  residual activity: 100%
[40]
  residual activity: 75%
[41]
  residual activity: 93%
[42]
  inhibition: 20.2%
[43]
  inhibition: 2.43%
[44]
  residual activity: 88%
[45]
  residual activity: 100%

## CC(=O)Nc1c(C(C)=O)c(=O)n(C)c2nc(-c3ccc(Cl)cc3Cl)c(-c3ccc(Cl)cc3)cc12 [NAPHTHYRIDINONE]
[1]
  residual activity: 100%
[2]
  residual activity: 100%
[3]
  residual activity: 100%
[4]
  residual activity: 94%
[5]
  residual activity: 100%
[6]
  residual activity: 100%
[7]
  residual activity: 100%
[8]
  residual activity: 100%
[9]
  residual activity: 97%
[10]
  residual activity: 84%
[11]
  inhibition: 21.8%
[12]
  residual activity: 100%
[13]
  residual activity: 100%
[14]
  residual activity: 100%
[15]
  residual activity: 100%
[16]
  residual activity: 100%
[17]
  residual activity: 100%
[18]
  residual activity: 100%
[19]
  residual activity: 100%
[20]
  inhibition: 7.96%
[21]
  residual activity: 100%
[22]
  residual activity: 100%
[23]
  residual activity: 100%
[24]
  residual activity: 100%
[25]
  residual activity: 100%
[26]
  residual activity: 100%
[27]
  residual activity: 100%
[28]
  residual activity: 100%
[29]
  residual activity: 95%
[30]
  residual activity: 100%
[31]
  residual activity: 100%
[32]
  residual activity: 100%
[33]
  residual activity: 87%
[34]
  residual activity: 100%
[35]
  residual activity: 100%
[36]
  residual activity: 100%
[37]
  residual activity: 100%
[38]
  residual activity: 100%
[39]
  residual activity: 100%
[40]
  residual activity: 100%
[41]
  residual activity: 100%
[42]
  inhibition: 15.5%
[43]
  inhibition: 5.73%
[44]
  residual activity: 100%
[45]
  residual activity: 100%
